Results from patent US20220323406A1, “METHODS AND COMPOSITIONS FOR DIFFERENTIATING STEM CELLS” (Massachusetts Institute of Technology, priority 2019, published 2022).
Counter-ions that a name gives are not always drawn.

What was measured:
[1] = test system: ENR+CD organoids (ISC to Paneth cell differentiation); assay: Primary screen: basal (non-stimulated) lysozyme secretion LYZ.NS, 2.5-D 384-well ENR+CD organoid differentiation; format: cell-based, mouse; conditions: primary screen; for Z.LYZ.NS: standard z score
From the text: (§1) High-throughput screening.

[2] = test system: ENR+CD organoids (ISC to Paneth cell differentiation); assay: Primary screen: CCh-stimulated lysozyme secretion LYZ.S, 2.5-D 384-well ENR+CD organoid differentiation; format: cell-based, mouse; conditions: primary screen
From the text: as §1

ENR+CD organoids = assay: Primary screen: ATP (CellTiter-Glo 3D, CTG) cell number/viability, 2.5-D 384-well ENR+CD organoids; conditions: primary screen; for Z.CTG: standard z score;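 as to all read-outs here: compounds given at plating and again on day 3 over a 6-day differentiation from ENR+CV stem-cell-enriched precursors, ATP measured on day 6, plate median as control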

Compound	Dose.FC.LYZ.NS ([1]; dose 0.08 uM) [log2 fold change]	Dose.FC.LYZ.NS ([1]; dose 0.40 uM) [log2 fold change]	Dose.FC.LYZ.NS ([1]; dose 2.00 uM) [log2 fold change]	Dose.FC.LYZ.NS ([1]; dose 10.00 uM) [log2 fold change]	Z.LYZ.NS ([1]; dose 0.08 uM)	Z.LYZ.NS ([1]; dose 0.40 uM)	Z.LYZ.NS ([1]; dose 2.00 uM)	Z.LYZ.NS ([1]; dose 10.00 uM)	Dose.FC.LYZ.S ([2]; dose 0.08 uM) [log2 fold change]	Dose.FC.LYZ.S ([2]; dose 0.40 uM) [log2 fold change]	Dose.FC.LYZ.S ([2]; dose 2.00 uM) [log2 fold change]	Dose.FC.LYZ.S ([2]; dose 10.00 uM) [log2 fold change]	Dose.FC.CTG (ENR+CD organoids; dose 0.08 uM) [log2 fold change]	Dose.FC.CTG (ENR+CD organoids; dose 0.40 uM) [log2 fold change]	Dose.FC.CTG (ENR+CD organoids; dose 2.00 uM) [log2 fold change]	Dose.FC.CTG (ENR+CD organoids; dose 10.00 uM) [log2 fold change]	Z.CTG (ENR+CD organoids; dose 0.08 uM)	Z.CTG (ENR+CD organoids; dose 0.40 uM)	Z.CTG (ENR+CD organoids; dose 2.00 uM)	Z.CTG (ENR+CD organoids; dose 10.00 uM)	other results
COCCCC/C(=N\OCCN)c1ccc(C(F)(F)F)cc1 [Fluvoxamine maleate]	0.074	0.087	0.089	−0.027	0.642	0.756	0.778	−0.235	0.114	0.172	0.108	0.012	0.115	0.254	0.211	0.138	–	–	–	–	–
COc1ccc(C[C@@H](C)NC[C@H](O)c2ccc(O)c(NC=O)c2)cc1.COc1ccc(C[C@@H](C)NC[C@H](O)c2ccc(O)c(NC=O)c2)cc1.O=C(O)/C=C/C(=O)O [Formoterol Hemifumarate]	0.145	0.073	0.048	0.013	1.263	0.638	0.420	0.114	0.206	0.293	0.090	0.011	0.294	0.265	0.242	0.253	0.703	0.633	0.578	0.604	–
C=C[C@@]1(C)CC(=O)[C@]2(O)[C@@]3(C)[C@@H](O)CCC(C)(C)[C@@H]3[C@H](O)[C@H](OC(C)=O)[C@@]2(C)O1 [Forskolin]	−0.007	0.159	0.191	0.219	−0.058	1.381	1.661	1.905	−0.004	0.237	0.102	0.128	−0.213	−0.175	−0.330	−0.119	–	–	–	–	–
COc1cc(Nc2ncc(F)c(Nc3ccc4c(n3)N(COP(=O)(O)O)C(=O)C(C)(C)O4)n2)cc(OC)c1OC [Fostamatinib (R788)]	0.119	−0.025	−0.099	−0.234	1.033	−0.217	−0.860	−2.036	0.235	0.156	−0.015	−0.350	0.232	−0.052	−0.231	−0.881	0.554	−0.123	−0.552	−2.105	–
C[C@]12CC[C@@H]3c4ccc(O)cc4C[C@@H](CCCCCCCCC[S+]([O-])CCCC(F)(F)C(F)(F)F)[C@H]3[C@@H]1CC[C@@H]2O (some centres unmarked) [Fulvestrant]	0.057	−0.050	0.000	−0.043	0.500	−0.432	0.003	−0.376	0.051	−0.049	−0.024	−0.150	0.119	−0.063	0.142	−0.204	–	–	–	–	–
CC(C)NC[C@@H](C(=O)N1CCN(c2ncnc3c2[C@H](C)C[C@H]3O)CC1)c1ccc(Cl)cc1 [GDC-0068]	0.036	0.054	−0.077	−0.185	0.311	0.469	−0.675	−1.613	0.076	0.087	−0.059	−0.319	0.042	0.118	0.184	−0.100	0.099	0.283	0.439	−0.238	–
CN[C@@H](C)C(=O)N[C@H](C(=O)N1CCC[C@H]1C(=O)Nc1snnc1-c1ccccc1)C1CCCCC1 [GDC-0152]	−0.002	−0.020	0.083	0.103	−0.013	−0.176	0.724	0.900	−0.020	−0.036	−0.057	−0.009	0.151	0.158	0.003	0.241	0.361	0.377	0.008	0.575	–
CS(=O)(=O)N1CCN(Cc2cc3nc(-c4cccc5[nH]ncc45)nc(N4CCOCC4)c3s2)CC1 [GDC-0941]	0.008	−0.013	−0.128	−0.156	0.070	−0.112	−1.113	−1.362	0.018	−0.076	−0.248	−0.257	0.283	0.022	−0.197	−1.223	0.677	0.053	−0.472	−2.921	–
NC(=O)c1cccc(-c2cc(Nc3ccc(OC(F)(F)F)cc3)ncn2)c1 [GNF-2]	–	–	–	–	–	–	–	–	–	–	–	–	–	–	–	–	–	–	–	–	Dose.FC.LYZ.NS (log2 fold change) ([1]; dose 0.08 uM): 0.159; Z.LYZ.NS (standard z score) ([1]; dose 0.08 uM): 1.386; Dose.FC.LYZ.NS (log2 fold change) ([1]; dose 0.40 uM): −0.024; Z.LYZ.NS (standard z score) ([1]; dose 0.40 uM): −0.206; Dose.FC.LYZ.NS (log2 fold change) ([1]; dose 2.00 uM): 0.012; Z.LYZ.NS (standard z score) ([1]; dose 2.00 uM): 0.102; Dose.FC.LYZ.NS (log2 fold change) ([1]; dose 10.00 uM): −0.033; Z.LYZ.NS (standard z score) ([1]; dose 10.00 uM): −0.286; Dose.FC.LYZ.S (log2 fold change) ([2]; dose 0.08 uM): 0.121; Dose.FC.LYZ.S (log2 fold change) ([2]; dose 0.40 uM): 0.001; Dose.FC.LYZ.S (log2 fold change) ([2]; dose 2.00 uM): 0.046; Dose.FC.LYZ.S (log2 fold change) ([2]; dose 10.00 uM): −0.015; Dose.FC.CTG (log2 fold change) (ENR+CD organoids; dose 0.08 uM): 0.157; Z.CTG (standard z score) (ENR+CD organoids; dose 0.08 uM): 0.376; Dose.FC.CTG (log2 fold change) (ENR+CD organoids; dose 0.40 uM): 0.090; Z.CTG (standard z score) (ENR+CD organoids; dose 0.40 uM): 0.214; Dose.FC.CTG (log2 fold change) (ENR+CD organoids; dose 2.00 uM): 0.074; Z.CTG (standard z score) (ENR+CD organoids; dose 2.00 uM): 0.176; Dose.FC.CTG (log2 fold change) (ENR+CD organoids; dose 10.00 uM): 0.100; Z.CTG (standard z score) (ENR+CD organoids; dose 10.00 uM): 0.240
CC1=C(C(=O)Nc2cc3cn[nH]c3cc2F)C(c2ccc(C(F)(F)F)cc2)CC(=O)N1 (centres unmarked) [GSK429286A]	–	–	–	–	–	–	–	–	–	–	–	–	–	–	–	–	–	–	–	–	Dose.FC.LYZ.NS (log2 fold change) ([1]; dose 0.08 uM): 0.137; Z.LYZ.NS (standard z score) ([1]; dose 0.08 uM): 1.197; Dose.FC.LYZ.NS (log2 fold change) ([1]; dose 0.40 uM): 0.128; Z.LYZ.NS (standard z score) ([1]; dose 0.40 uM): 1.117; Dose.FC.LYZ.NS (log2 fold change) ([1]; dose 2.00 uM): 0.140; Z.LYZ.NS (standard z score) ([1]; dose 2.00 uM): 1.222; Dose.FC.LYZ.NS (log2 fold change) ([1]; dose 10.00 uM): 0.059; Z.LYZ.NS (standard z score) ([1]; dose 10.00 uM): 0.517; Dose.FC.LYZ.S (log2 fold change) ([2]; dose 0.08 uM): 0.247; Dose.FC.LYZ.S (log2 fold change) ([2]; dose 0.40 uM): 0.283; Dose.FC.LYZ.S (log2 fold change) ([2]; dose 2.00 uM): 0.245; Dose.FC.LYZ.S (log2 fold change) ([2]; dose 10.00 uM): 0.099; Dose.FC.CTG (log2 fold change) (ENR+CD organoids; dose 0.08 uM): 0.527; Z.CTG (standard z score) (ENR+CD organoids; dose 0.08 uM): 1.260; Dose.FC.CTG (log2 fold change) (ENR+CD organoids; dose 0.40 uM): 0.545; Z.CTG (standard z score) (ENR+CD organoids; dose 0.40 uM): 1.302; Dose.FC.CTG (log2 fold change) (ENR+CD organoids; dose 2.00 uM): 0.488; Z.CTG (standard z score) (ENR+CD organoids; dose 2.00 uM): 1.166; Dose.FC.CTG (log2 fold change) (ENR+CD organoids; dose 10.00 uM): 0.370; Z.CTG (standard z score) (ENR+CD organoids; dose 10.00 uM): 0.883
